18 compounds from PMC7174603, “Functional Analysis of Two Odorant-Binding Proteins, MaltOBP9 and MaltOBP10, in Monochamus alternatus Hope” (Frontiers in Physiology, 2020) can be followed below.

Molecules are shown by their SMILES. Where only a bound is given, the exact number is not on record here.

For assay [1], the target named is T1, MaltOBP10 (Monochamus alternatus, UniProt A0A1I9HZL5).
T1 construct: gene obp10; said to encode mature protein (clone primer starts at ATG)
T1 sequence (A0A1I9HZL5 1-144 limits assumed): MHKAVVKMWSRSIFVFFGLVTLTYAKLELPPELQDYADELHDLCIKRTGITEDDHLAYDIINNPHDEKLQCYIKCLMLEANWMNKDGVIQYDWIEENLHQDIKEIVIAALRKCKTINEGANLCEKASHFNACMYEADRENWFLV
Put plainly: biochemical. Details: 1-NPN fluorescence displacement competitive binding to 2 uM recombinant OBP; Ki from IC50. As for the experimental part:
(§1) Fluorescence-binding assays were performed to determine the binding affinities of MaltOBP9 and MaltOBP10 with 17 volatiles in neutral and acidic pH conditions separately using N-phenyl-1-naphthylamine (1-NPN) as the fluorescent probe. 1-NPN and all of the other chemicals used in the binding assays were purchased from Sigma-Aldrich (St. Louis, MO, United States). All of the ligand stock solutions were prepared in spectrophotometric grade methanol. The binding constants for 1-NPN were determined by adding aliquots of 1 mM 1-NPN to separate samples containing 2 μM of each OBP in 50 mM Tris–HCl at pH 7.4 and room temperature. The binding of 1-NPN was measured at an excitation wavelength of 337 nm and the fluorescence intensity was recorded between 300 and 600 nm during a high-speed scan using an RF-5301PC fluorescence spectrophotometer with a 1-cm light path and a quartz cuvette. Saturation curves were constructed for the binding of 1-NPN with the OBPs and the dissociation constant (Kd) of the binding reaction was calculated by performing Scatchard analysis of the data using the Prism 5 program (GraphPad, La Jolla, CA, United States). The binding analyses were performed based on the assumption that the protein was completely active and that the stoichiometry of binding was 1:1 at saturation. Aliquots of the competitor ligand were added to a sample containing 2 μM of each separate OBP and a standard concentration of 1-NPN. […] The binding data were collected during three independent high-speed scans. Ki representing the Kd of the competitor was determined based on the IC50 value (half maximal inhibitory concentration) for the competitor as the concentration of the competitor that displaced 50% of the bound 1-NPN at a standard total 1-NPN concentration (bound plus free) at equilibrium. Ki was calculated according to the following equation: Ki = [IC50]/(1+[1-NPN]/K), where 1-NPN is the free concentration of 1-NPN and K1–NPN is Kd for the 1-NPN-OBP binding reaction determined by Scatchard analysis ([Campanacci et al., 2001]). After confirmation by SDS-PAGE, the purified MaltOBP9 and MaltOBP10 proteins were used in fluorescence-binding assays to determine their binding affinities with different volatiles that come from forest. First, we analyzed the binding of the fluorescent probe 1-NPN with MaltOBP9 and MaltOBP10 (Figure 6). […] The binding affinities (Ki < 50) ([Zheng et al., 2016]) with all of the ligands indicted the broad binding ranges of MaltOBP9 and MaltOBP10 at pH 7.4. […] The change in the pH appeared to have less impact on the binding with MaltOBP10.

In assay [2] the target is T2, MaltOBP9 (Monochamus alternatus, UniProt A0A1I9HZK8).
T2 construct: gene obp9; said to encode mature protein (clone primer starts at ATG)
T2 sequence (A0A1I9HZK8 1-140 limits assumed): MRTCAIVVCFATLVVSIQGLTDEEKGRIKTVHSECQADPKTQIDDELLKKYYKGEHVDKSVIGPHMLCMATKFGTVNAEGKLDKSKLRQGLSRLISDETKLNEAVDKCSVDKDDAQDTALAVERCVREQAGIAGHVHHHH
In words: biochemical. The arrangement: 1-NPN fluorescence displacement competitive binding to 2 uM recombinant OBP; Ki from IC50. On the procedure:
as §1

Assay [3] deals with T1, MaltOBP10. Put plainly: fluorescence competitive binding, 1-NPN displacement. Particulars: read-out: MaltOBP10 / pH7.4. The source says:
fluorescence competitive binding, 1-NPN displacement on MaltOBP10

The target in assay [4] is T2, MaltOBP9. The description is as above. Particulars: read-out: MaltOBP9 / pH7.4. The source says: fluorescence competitive binding, 1-NPN displacement on MaltOBP9
For assay [5], the target named is T2, MaltOBP9. Put plainly: fluorescence titration, Scatchard analysis. Particulars: read-out: MaltOBP9 / pH7.4. It counts as binding. The text has this: fluorescence titration, Scatchard analysis on MaltOBP9
In assay [6] the target is T1, MaltOBP10. In words: fluorescence titration, Scatchard analysis. The class given is binding. Particulars: read-out: MaltOBP10 / pH7.4. The source says:
fluorescence titration, Scatchard analysis on MaltOBP10

Assay [7] deals with T1, MaltOBP10. In words: biochemical. Particulars: pH 5.0; read-out: MaltOBP10 / pH5.0. The arrangement: direct 1-NPN fluorescence saturation binding to 2 uM recombinant OBP; Kd by Scatchard analysis. On the procedure:
(§2) Fluorescence-binding assays were performed to determine the binding affinities of MaltOBP9 and MaltOBP10 with 17 volatiles in neutral and acidic pH conditions separately using N-phenyl-1-naphthylamine (1-NPN) as the fluorescent probe. 1-NPN and all of the other chemicals used in the binding assays were purchased from Sigma-Aldrich (St. Louis, MO, United States). All of the ligand stock solutions were prepared in spectrophotometric grade methanol. The binding constants for 1-NPN were determined by adding aliquots of 1 mM 1-NPN to separate samples containing 2 μM of each OBP in 50 mM Tris–HCl at pH 7.4 and room temperature. The binding of 1-NPN was measured at an excitation wavelength of 337 nm and the fluorescence intensity was recorded between 300 and 600 nm during a high-speed scan using an RF-5301PC fluorescence spectrophotometer with a 1-cm light path and a quartz cuvette. Saturation curves were constructed for the binding of 1-NPN with the OBPs and the dissociation constant (Kd) of the binding reaction was calculated by performing Scatchard analysis of the data using the Prism 5 program (GraphPad, La Jolla, CA, United States). […] Ki was calculated according to the following equation: Ki = [IC50]/(1+[1-NPN]/K), where 1-NPN is the free concentration of 1-NPN and K1–NPN is Kd for the 1-NPN-OBP binding reaction determined by Scatchard analysis ([Campanacci et al., 2001]). […]

In assay [8] the target is T2, MaltOBP9. Put plainly: biochemical. The arrangement: direct 1-NPN fluorescence saturation binding to 2 uM recombinant OBP; Kd by Scatchard analysis. Particulars: pH 5.0; read-out: MaltOBP9 / pH5.0. As for the experimental part:
as §2

Setting [9] is: pH 5.0, read-out: MaltOBP10 / pH5.0.
Setting [10] is: pH 7.4, read-out: MaltOBP10 / pH7.4.
[11] abbreviates: pH 5.0, read-out: MaltOBP9 / pH5.0.
Setting [12] is: pH 7.4, read-out: MaltOBP9 / pH7.4.

Turning to `CC1(C)C(=O)[C@@]2(C)CC[C@@H]1C2` [(+)-Fenchone], the Ki on MaltOBP10 [1] (setting [9]) came out at 24.7 ± 1.29 µM; at MaltOBP10 [1] (setting [10]), 22.7 ± 1.23 µM; at MaltOBP9 [2] (setting [11]), 46.2 ± 2.59 µM; on MaltOBP9 [2] (setting [12]) it was 27.8 ± 1.04 µM.

Turning to `C=C(C)C1CCC2(C)OC2C1` (single isomer, unassigned; (+)) [(+)-Limonene oxide], the Ki at MaltOBP10 [1] (pH 5.0, binder, read-out: MaltOBP10 / pH5.0) worked out at 46.1 ± 4.9 µM; at MaltOBP10 [1] (pH 7.4, binder, read-out: MaltOBP10 / pH7.4), 19.8 ± 1.78 µM; on MaltOBP9 [2] (pH 5.0, binder, read-out: MaltOBP9 / pH5.0), 48.8 ± 4.51 µM; on MaltOBP9 [2] (pH 7.4, binder, read-out: MaltOBP9 / pH7.4), 43.3 ± 0.74 µM.

For the compound `C=C1CC[C@H]2O[C@]2(C)CC[C@@H]2[C@@H]1CC2(C)C` [(−)-caryophyllene oxide], the Ki at MaltOBP10 [3] amounted to 16.4 ± 0.4 µM; on MaltOBP9 [4], 15.3 ± 0.94 µM; on MaltOBP9 [2] (setting [11]), 39.3 ± 0.73 µM.

As to `c1ccc(Nc2cccc3ccccc23)cc1` [1-NPN], the Kd at MaltOBP9 [5] is 1700 ± 210 nM; at MaltOBP10 [6], 1350 ± 90 nM; at MaltOBP10 [7], 5.88 ± 0.69 µM; at MaltOBP9 [8], 620 ± 180 nM.

Consider `C=C(C)[C@@H]1CC=C(C)CC1` [S-(−)-Limonene], for which the Ki on MaltOBP10 [3] turned out to be 18.4 ± 0.67 µM; at MaltOBP10 [1] (setting [9]), 51.7 ± 5.74 µM; at MaltOBP9 [2] (setting [11]) it was 12 ± 0.86 µM; at MaltOBP9 [2] (setting [12]) it was 29.2 ± 1.81 µM.

On to `C=C1[C@H]2CC[C@@H]3[C@H]2[C@H](C(C)C)CC[C@]13C` [(+)-Sativene], for which, at MaltOBP9 [4] (pH 7.4, 50 mM Tris-HCl, room temperature, competitive with 1-NPN, 2 μM protein), the Ki worked out at 19.5 ± 0.36 µM.

Regarding `CC1=CC[C@@H]2C[C@H]1C2(C)C` [(+)-α-pinene], the Ki was 13.3 ± 1.94 µM at MaltOBP10 [3], 17.3 ± 3.16 µM at MaltOBP10 [1] (setting [9]), > 50 µM on MaltOBP9 [2] (setting [11]) and 21.1 ± 2.84 µM on MaltOBP9 [2] (setting [12]).

As for `CC1=CCC(=C(C)C)CC1` [α-terpinolene], the Ki was found to be 17.5 ± 0.33 µM on MaltOBP10 [3], 15.6 ± 1.44 µM on MaltOBP10 [1] (setting [9]), 18.5 ± 0.23 µM on MaltOBP9 [2] (setting [11]) and 22.2 ± 0.34 µM at MaltOBP9 [2] (setting [12]).

Turning to `C=C1CC[C@@H]2C[C@H]1C2(C)C` [(+)-β-pinene], the figures for the Ki at MaltOBP10 [1] (setting [9]), on MaltOBP10 [1] (setting [10]) and on MaltOBP9 [2] (setting [11]) were 62.8 ± 1.08 µM, 25.8 ± 3.78 µM and 21.7 ± 0.65 µM, respectively.

In the case of `C=C1CC/C=C(\C)CC[C@@H]2[C@@H]1CC2(C)C` [β-Caryophyllene], the Ki was 16.3 ± 1.97 µM on MaltOBP10 [3], 16.36 ± 0.04 µM at MaltOBP9 [4], 23.5 ± 1.72 µM at MaltOBP10 [1] (setting [9]) and 129 ± 9.52 µM at MaltOBP9 [2] (setting [11]).

For `Cc1cc(C(C)(C)C)c(O)c(C(C)(C)C)c1` [Butylated hydroxytoluene], the Ki on MaltOBP10 [3] is 20.1 ± 2.75 µM; on MaltOBP9 [4], 9.58 ± 0.28 µM; on MaltOBP9 [2] (setting [11]) it was 3.57 ± 0.58 µM.

Take `CC1=CC[C@@H]2[C@@H]3[C@H]1[C@@]2(C)CCCC3(C)C` [(+)-α-longipinene]: the Ki on MaltOBP10 [3] was found to be 11.6 ± 0.74 µM; on MaltOBP9 [4] it was 12.5 ± 0.67 µM; on MaltOBP10 [1] (setting [9]) it was 21.2 ± 1.75 µM; at MaltOBP9 [2] (setting [11]) it was 34.7 ± 0.94 µM.

Take `CC1(C)[C@H]2CC[C@]1(C)C(=O)C2` (racemic) [Camphor]: the Ki turned out to be 21.2 ± 3.49 µM at MaltOBP10 [1] (setting [9]), 26.2 ± 1.76 µM at MaltOBP10 [1] (setting [10]), 50.5 ± 3.68 µM at MaltOBP9 [2] (setting [11]) and 25.9 ± 0.76 µM at MaltOBP9 [2] (setting [12]).

Consider `CC1=CCC2C(C1)C2(C)C` (stereo not drawn) [3-carene], for which the Ki on MaltOBP10 [1] (setting [9]) stood at 32.5 ± 4.28 µM; at MaltOBP10 [1] (setting [10]) it was 42.5 ± 0.82 µM; at MaltOBP9 [2] (setting [11]), 38.12 ± 0.23 µM; at MaltOBP9 [2] (setting [12]) it was 25.1 ± 0.76 µM.

For the compound `C=C(C)[C@H]1CC=C(C)CC1` [R-(+)-Limonene], the Ki is 17.1 ± 2.24 µM at MaltOBP9 [4], 55.5 ± 9.88 µM on MaltOBP10 [1] (setting [9]), 23.9 ± 1.89 µM on MaltOBP10 [1] (setting [10]) and > 50 µM at MaltOBP9 [2] (setting [11]).

Consider `C=CC(=C)CCC=C(C)C` [Myrcene], for which the Ki at MaltOBP10 [3] came out at 12.4 ± 0.5 µM; on MaltOBP9 [4] it was 7.77 ± 0.14 µM; on MaltOBP10 [1] (setting [9]), 19.37 ± 0.02 µM; at MaltOBP9 [2] (setting [11]), 3.96 ± 0.78 µM.

On to `Cc1ccc(C(C)C)cc1` [p-cymene], for which the Ki on MaltOBP9 [4] was 11.7 ± 0.23 µM; at MaltOBP10 [1] (setting [9]), 35.4 ± 0.63 µM; on MaltOBP10 [1] (setting [10]), 23.8 ± 2.33 µM; on MaltOBP9 [2] (setting [11]) it was > 50 µM.

Turning to `C=C1[C@@H]2CC[C@@H](C2)C1(C)C` [Camphene], the Ki at MaltOBP10 [1] (setting [9]) is 14.8 ± 0.57 µM; on MaltOBP10 [1] (setting [10]), 20.6 ± 1.22 µM; on MaltOBP9 [2] (setting [11]), > 50 µM; on MaltOBP9 [2] (setting [12]) it was 22.6 ± 1.08 µM.
